Patent publication US9193983B2, “Assays for mutagenesis detection” (The Regents of the University of California, priority 2007, dated 2015)

Legend:
[1] = test system: S. cerevisiae strain RS112; experiment: well-based DEL assay (MTS colorimetric, 96/384-well): genotoxicity and cytotoxicity
Description: The RS112 yeast DEL assay tester strain of Saccharomyces cerevisiae contains a plasmid with an internal fragment of the HIS3 gene integrated at the genomic HIS3 locus, yielding an integrative disruption of the HIS3 gene. This disruption results in two copies of the HIS3 gene, each copy having one terminal deletion. Recombination between the two his3 deletion alleles results in reversion to HIS3^+ and growth in the absence of histidine. This recombination event leads to a 6 kb DNA deletion comprising the integrated plasmid leading to deletion (DEL) events. The assay utilizing DEL events involves overnight growth of a single colony of the RS112 strain and subsequent subculture with the presence or absence of the chemical being tested for 17 hours at 30° C. under constant shaking. Yeast are then plated onto SC medium to determine the number of survivors (individual colonies are counted) and onto SC-HIS medium to score for DEL events. The traditional DEL assay is very powerful if one is testing a limited number of chemicals but becomes impractical for screening large numbers of chemicals and chemical libraries.
For 384-well plate format, 1 μl of yeast (˜100,000 cells) was pipetted into 8 microplate wells for each compound, four of which containing 70 μl SC media and four containing 70 μl SC-HIS media; each well was supplemented with 14 μl of MTS and 5 μl of compound. For 96-well plate format, the above was consistent except media, MTS, and compound volumes were 100 μl, 20 μl, and 7 μl, respectively. Control wells were treated with water in lieu of compound. The outermost columns of the 96-well plate and outer two columns of each 384-well plate were excluded from experimentation lest edge evaporative effects alter the data. Plates were incubated at 30° C. at normal atmosphere during which yeast were grown in the presence of the tested compound and 490 nm absorbance was measured 10-18 hr later using a Molecular Devices SpectraMax M5 microplate reader (Sunnyvale, Calif.).
Survival for a given compound treatment was quantified by averaging the absorbance across the four treated wells in SC media and dividing that by the average absorbance of control wells. DEL induction was quantified by dividing the absorbance of each SC-HIS well by the corresponding paired SC well. Thus for each compound done in quadruplicate, each plate contains a set of 4 different measurements of DEL induction. For each compound, ratio of the average DEL induction in treated versus control cultures was taken as the fold-increase in DEL events (HIS^+ growth). A Student's t-test was performed on the 4 measurements of DEL induction and the same measurements recorded from control wells to determine significance of the fold-increase. It should be noted that this value of fold-increase is analyzed statistically for significance and not absolute; thus two different chemicals may have the same fold-increase but varying levels of significance. In plots and tables, data from a single experiment performed in quadruplicate is presented; all experiments were repeated independently in at least 3 separate experiments in both 96 and 384-well plate formats.

Saccharomyces cerevisiae [2] = conditions: cited from earlier work; for induction of DNA deletions: previous experiments
Saccharomyces cerevisiae [3] = experiment: traditional plate-based yeast DEL assay (DNA deletions); type: cell-based; conditions: 1.4 mM; background about 20 DEL events per 100,000 cells
Description: In one embodiment, yeast cells (Saccharomyces cerevisiae) having a disruption of the his gene as the DEL selection marker are treated with test agents in 25 ml tubes and then plated for about 48 h at 30° C. Following treatment the cells are washed, for example, with PBS, and sonicated to assure dissociation of the cells into a single-cell suspension. The cells are then plated at an appropriate dilution (see below) onto medium lacking histidine as well as standard medium containing histidine. The histidine-lacking medium is used to determine recombination frequency. Standard medium (medium containing histidine) is used to determine the overall toxicity of the test agent.

Saccharomyces cerevisiae [4] = conditions: Angeli's salt as HNO donor; cited from earlier work

SMILES	Cytotoxicity (% survival) ([1]; 0.2 mM final in well)	DEL (fold increase) ([1]; 0.2 mM final in well)	DEL significance ([1]; 0.2 mM final in well)	Cytotoxicity (% survival) ([1]; 0.7 mM final in well)	Cytotoxicity significance ([1]; 0.7 mM final in well)	DEL (fold increase) ([1]; 0.7 mM final in well)	DEL significance ([1]; 0.7 mM final in well)	Cytotoxicity (% survival) ([1]; 1.4 mM final in well)	Cytotoxicity significance ([1]; 1.4 mM final in well)	DEL (fold increase) ([1]; 1.4 mM final in well)	DEL significance ([1]; 1.4 mM final in well)	induction of DNA deletions (Saccharomyces cerevisiae [2])	also measured
[Cl][Cr]([Cl])[Cl] [Cr (3), CrCl3]	110.1%	0.93 fold	ns (ns—not significant (p > 0.05))	85.8%	** (** (p < 0.01))	0.98 fold	ns (ns—not significant (p > 0.05))	36.8%	*** (*** (p < 0.005))	1.44 fold	*** (*** (p < 0.005))	induced DNA deletions	DEL recombination ([1]; 1.4 mM (~222 μg/ml)): significant increase in DEL recombination; genotoxic events ([1]; 0.2 (~32 μg/ml) or 0.7 mM (~111 μg/ml)): did not induce any genotoxic events; lowest detectable concentration (significant genotoxicity) ([1]; well-based format): 1.4 mM; DEL events per 100,000 cells (Saccharomyces cerevisiae [2]; 1.4 mM (~222 μg/ml), plate-based assay, previously observed): 33.6 DEL events per 100,000 cells; lowest dose which induced significant genotoxicity (Saccharomyces cerevisiae [2]; traditional agar plate version): 0.7 mM; increase above background (Saccharomyces cerevisiae [3]): approximately 13.6 cells
[K+].[K+].[O]=[Cr](=[O])([O-])[O][Cr](=[O])(=[O])[O-] [Cr (6), K2Cr2O7]	32.1%	2.13 fold	*** (*** (p < 0.005))	9.91%	*** (*** (p < 0.005))	3.78 fold	*** (*** (p < 0.005))	10.8%	*** (*** (p < 0.005))	3.12 fold	*** (*** (p < 0.005))	induced DNA deletions	Cytotoxicity significance ([1]; 0.2 mM final in well): *** (*** (p < 0.005)); induction of the DEL assay ([1]; between 0.2 and 1.4 mM (~20-140 μg/ml)): very potent induction of the DEL assay; survival ([1]; with increased dose between 0.2 and 1.4 mM (~20-140 μg/ml)): severely decreased survival
N=O [HNO]	–	–	–	–	–	–	–	–	–	–	–	–	induction of DNA deletions and recombination (Saccharomyces cerevisiae [2]; Angeli's salt as HNO donor): potent inducer of DNA deletions and recombination; genotoxicity (Saccharomyces cerevisiae [2]; under aerobic and anaerobic conditions): observed; induction of point mutations (Saccharomyces cerevisiae [4]): negative
